From patent publication US20230293469A1, “NOVEL PHARMACEUTICAL COMPOSITIONS” (NEUROPRO THERAPEUTICS, INC., priority 2020, published 2023)
Values joined by “and” are separate entries in the source; they are usually repeats but may differ in a detail not shown here. Equal values may be shown once. Read-outs that look alike come from different tables or passages of the source.

Experiment: IV bolus PK of NPT-2042 in dog
Type: in vivo
Experimental: Assays were performed to determine absolute bioavailability of NPT2042 in two species: dog and rat. The calculation of absolute bioavailability depends on four inputs: the areas under the curves (AUC) for oral and IV, and the oral and IV doses.
Testing was conducted to determine AUC for an IV dose in dog.
The same two dogs were each dosed 2042 IV at 10 mg/kg.
Table 8 provides Noncompartmental Parameters for NPT-2042 for 10 mg/kg Bolus Dosing of NPT-2042 in Dogs (n=2).

[1] = NPT-2042, dog, IV bolus 10 mg/kg, animals 1201A, 1501A, Mean, 10 mg/kg

SMILES: CCCCNc1cc(C(=O)N(Cc2ccccc2)Cc2ccccc2)cc(S(N)(=O)=O)c1Oc1ccccc1 [NPT-2042, N,N-Dibenzyl 3-Aminosulfonyl-5-butylamino-4-phenoxybenzamide]
- C0 (back-extrapolated concentration) [1]: 5680 ng/mL and 6440 ng/mL
- CL (total body clearance) [1]: 19.5 mL/min/kg and 16.2 mL/min/kg
- Tmax [1]: 4.98 min
- Vz (volume of distribution) [1]: 6.44 L/kg and 6.54 L/kg
- t½ (terminal-phase half-life) [1]: 3.82 h and 4.67 h
- Plasma NPT-2042 concentrations (in words) (dog, IV bolus 10 mg/kg): high and still quantifiable at 24 hours after dosing
- Diuresis (dog, IV bolus 10 mg/kg NPT-2042): lack of diuresis
- Decay profile after bolus dosing (dog, IV bolus 10 mg/kg, log-linear plots): multi-exponential decay
- AUC(0-inf) (dog, plasma, iv, 10 mg/kg, NPT-2042, dog, IV bolus 10 mg/kg, animals 1201A, 1501A, Mean): 8560 ng·h/mL
- C0 (dog, plasma, iv, 10 mg/kg, NPT-2042, dog, IV bolus 10 mg/kg, animals 1201A, 1501A, Mean, read-out: C0 (back-extrapolated concentration)): 6060 ng/mL
- clearance (dog, plasma, iv, 10 mg/kg, NPT-2042, dog, IV bolus 10 mg/kg, animals 1201A, 1501A, Mean, read-out: CL (total body clearance) (converted)): 17.8 mL/min/kg
- Cmax (dog, plasma, iv, 10 mg/kg, NPT-2042, dog, IV bolus 10 mg/kg, animals 1201A, 1501A, Mean, read-out: Cmax): 5210 ng/mL
- Tmax (dog, plasma, iv, 10 mg/kg, NPT-2042, dog, IV bolus 10 mg/kg, animals 1201A, 1501A, Mean, read-out: Tmax): 4.8 min
- Vd (dog, plasma, iv, 10 mg/kg, NPT-2042, dog, IV bolus 10 mg/kg, animals 1201A, 1501A, Mean, read-out: Vz (volume of distribution)): 6.49 L/kg
- half-life (dog, plasma, iv, 10 mg/kg, NPT-2042, dog, IV bolus 10 mg/kg, animals 1201A, 1501A, Mean, read-out: t½ (terminal-phase half-life) (converted)): 4.25 h
- concentration at 0.08 h (dog, plasma, iv, 10 mg/kg, dog, IV bolus 10 mg/kg, animals 1201A, 1501A, Mean, read-out: Plasma NPT-2042 concentration, Time 0.08 h): 5560 ng/mL
- concentration at 1 h (dog, plasma, iv, 10 mg/kg, dog, IV bolus 10 mg/kg, animals 1201A, 1501A, Mean, read-out: Plasma NPT-2042 concentration, Time 1.00 h): 2240 ng/mL
- concentration at 2 h (dog, plasma, iv, 10 mg/kg, dog, IV bolus 10 mg/kg, animals 1201A, 1501A, Mean, read-out: Plasma NPT-2042 concentration, Time 2.00 h): 1230 ng/mL
- concentration at 4 h (dog, plasma, iv, 10 mg/kg, dog, IV bolus 10 mg/kg, animals 1201A, 1501A, Mean, read-out: Plasma NPT-2042 concentration, Time 4.00 h): 688 ng/mL
- concentration at 6 h (dog, plasma, iv, 10 mg/kg, dog, IV bolus 10 mg/kg, animals 1201A, 1501A, Mean, read-out: Plasma NPT-2042 concentration, Time 6.00 h): 326 ng/mL
- concentration at 8 h (dog, plasma, iv, 10 mg/kg, dog, IV bolus 10 mg/kg, animals 1201A, 1501A, Mean, read-out: Plasma NPT-2042 concentration, Time 8.00 h): 182 ng/mL
- CL as fraction of hepatic blood flow (dog, hepatic blood flow about 1.5 L/h/kg): about ⅔
